Measurements taken from the NIST ThermoML archive (doi:10.1021/je201334p).

Columns and labels:
[1] = xn = mol fraction of the nth substance listed; settings: 101 kPa, Liquid; for speed of sound: Sing-around technique in a fixed-path interferometer; for mass density: Vibrating tube method
[2] = refractive index (Na D-line) (dimensionless); xn = mol fraction of the nth substance listed; settings: 101 kPa, Liquid, Standard Abbe refractometry

CCOS(=O)(=O)[O-].CCc1cccc[n+]1CC [1,2-diethylpyridinium ethylsulfate] + O
Settings	mass density, 288.15 K [kg/m3]	mass density, 298.15 K [kg/m3]	mass density, 308.15 K [kg/m3]	refractive index, 288.15 K	refractive index, 298.15 K	refractive index, 308.15 K	speed of sound, 288.15 K [m/s]	speed of sound, 298.15 K [m/s]	speed of sound, 308.15 K [m/s]
[1], x2 = 0	1225.93	1219.26	1212.65	–	–	–	1774.5	1745.2	1718.4
[1], x2 = 0.0987	1224.31	1217.63	1211.14	–	–	–	1778.2	1749.1	1722.4
[1], x2 = 0.1089	1224.06	1217.36	1210.87	–	–	–	1778.4	1749.5	1723
[1], x2 = 0.2048	1222.4	1215.83	1209.22	–	–	–	1781.1	1753.9	1727.5
[1], x2 = 0.3037	1219.81	1213.23	1206.65	–	–	–	1787.5	1760.5	1734.4
[1], x2 = 0.3979	1216.82	1210.11	1203.43	–	–	–	1794.1	1767.4	1741.1
[1], x2 = 0.4922	1212.76	1206.04	1199.29	–	–	–	1803.5	1776.8	1750.6
[1], x2 = 0.6018	1205.78	1198.92	1192.05	–	–	–	1817.3	1790.5	1763.7
[1], x2 = 0.7084	1194.96	1187.92	1180.85	–	–	–	1836.4	1809.2	1782.1
[1], x2 = 0.8029	1177.39	1170.26	1163.05	–	–	–	1854.8	1827.2	1799.4
[1], x2 = 0.8984	1138.4	1131.51	1124.48	–	–	–	1846.6	1821.6	1795.6
[1], x2 = 0.9493	1092.23	1086.65	1080.72	–	–	–	1759.2	1746.2	1731.8
[2], x2 = 0	–	–	–	1.51631	1.5135	1.51067	–	–	–
[2], x2 = 0.0987	–	–	–	1.51478	1.51196	1.50914	–	–	–
[2], x2 = 0.1089	–	–	–	1.51458	1.51176	1.50896	–	–	–
[2], x2 = 0.2048	–	–	–	1.51266	1.50984	1.50705	–	–	–
[2], x2 = 0.3037	–	–	–	1.51023	1.50743	1.50461	–	–	–
[2], x2 = 0.3979	–	–	–	1.50723	1.5044	1.50156	–	–	–
[2], x2 = 0.4922	–	–	–	1.50325	1.50042	1.49759	–	–	–
[2], x2 = 0.6018	–	–	–	1.49668	1.49381	1.49094	–	–	–
[2], x2 = 0.7084	–	–	–	1.48656	1.48367	1.48071	–	–	–
[2], x2 = 0.8029	–	–	–	1.47121	1.46831	1.46515	–	–	–
[2], x2 = 0.8984	–	–	–	1.43938	1.43661	1.43375	–	–	–
[2], x2 = 0.9493	–	–	–	1.4043	1.40198	1.40013	–	–	–
